Entries after “also recorded” stand apart in the source; their conditions may differ.

Consider 36 molecules from US4304864A, “Long-chain acyl-coenzyme-A synthetase” (Mitsubishi Chemical Industries, Limited, priority 1978, dated 1981).

The test system of data set [1] is acyl-CoA synthetase I. The data set is described as follows: Specificity for nucleoside-5'-triphosphate. Particulars: for effectiveness as nucleoside-5'-triphosphate: 7.5 mM and 15 mM. The format is biochemical, Candida lipolytica. The protocol:
(§1) The standard reaction solution contained 100 μmol of Tris-HCl buffer (pH 7.4), 5 μmol of dithiothreitol, 1.6 μmol of surfactant T, 7.5 μmol of ATP, 10 μmol of MgCl2, 0.25 μmol of potassium oleate, 1 μmol of CoA, 0.2 μmol of potassium phosphoenolpyruvate, 0.15 μmol of NADH, 20 μg of myokinase, 30 μg of pyruvate kinase, 30 μg of lactate dehydrogenase and a certain amount of acyl-CoA synthetase per ml of the solution. A reaction solution containing all the above components except CoA was preincubated at 25° C. for one minute. The reaction was then initiated by the addition of CoA, and the rate of decrease in optical density at 340 nm which was attributed to decrease in amount of NADH was determined.
(ii) Specificity for nucleoside-5'-triphosphate: Only ATP and αATP were effective. At concentrations of 7.5 mM and 15 mM, the activities measured with αATP were 78% and 61%, respectively, of those measured with ATP.

Data set [2] relates to acyl-CoA synthetase. The data set is described as follows: Activator and inhibitor of the enzyme. The format is biochemical, Candida lipolytica.
Data set [3] concerns acyl-CoA synthetase. Kind of data set: Substrate specificity of acyl-CoA synthetase (fatty acids). Type of data set: biochemical, Candida lipolytica. Conditions: for Activity (μmol acyl-CoA/min.): fatty acid concentration 0.25 mM. The protocol: (§2) The sssay of enzyme activity was carried out by the Banis and Tove method. (See Biochemica et Biophysica Acta, Vol. 348, pages 210-220 (1974)). According to this method, the reaction solution contained 20 μmol of Tris-HCl buffer (pH 7.5), 3 μmol of ATP, 2 μmol of MgCl2, 1.0 μmol of dithiothreitol, 0.2 μmol of [U-^14 C] potassium palmitate (0.2 mCi/mmol), 0.32 μmol of surfactant T, 0.2 μmol of CoA and an aliquot of the enzyme solution in a total volume of 0.2 ml. After a 5 minute preincubation, either the CoA or the enzyme solution which had been kept from incorporating in the reaction solution was added to initiate the reaction (at 25° C.). At the end of a 10 minute reaction period, 2.5 ml of isopropanol-n-heptane-1 M sulfuric acid (40:10:1) was added to stop the reaction. The solution was then extracted with heptane to remove any unreacted free fatty acid. After the aqueous layer was washed twice each with 2 ml of heptane containing 8 mg of palmitic acid, the radioactivity of the aqueous layer was measured.
as §1

In data set [4] the test system is acyl-CoA synthetase. Described as above. The format is biochemical, Candida lipolytica. Conditions: fatty acid concentration 0.125 mM.
In data set [5] the test system is acyl-CoA synthetase I. The data set is described as follows: Specificity for acyl acceptors (Vmax and apparent Km). The format is biochemical, Candida lipolytica. Conditions: for utilization as acyl acceptor: at conc. up to 5 mM; for Km / Vmax: acyl acceptor; for Vmax: CoA designated as 100%. As to the method: as §2, §1
The Vmax values and the apparent Km values were as follows: […]

The conditions of data set [6]: most purified form, prior art; cited from earlier work.

Take `Nc1ncnc2c1ncn2[C@@H]1O[C@H](COP(=O)(O)OP(=O)(O)OP(=O)(O)O)[C@@H](O)[C@H]1O` [ATP]: the “effectiveness as nucleoside-5'-triphosphate” value in the data set with acyl-CoA synthetase I [1] is reported as “effective”.
As to `[Mg+2]` [Mg^++], the “activation or inhibition of the enzyme” value with acyl-CoA synthetase [2] was “activator; also recorded: activated”.
Turning to `Nc1ncnc2c1ncn2[C@@H]1O[C@H](COP(=O)(O)OP(=O)(O)CP(=O)(O)O)[C@@H](O)[C@H]1O` [adenylyl (β,γ-methylene)diphosphonate], the “effectiveness as nucleoside-5'-triphosphate” value in the data set with acyl-CoA synthetase I [1] is recorded as “essentially ineffective”.
On to `CCCCCCCCCCCCCCC(=O)O` [Pentadecanoic acid], for which, in the data set on acyl-CoA synthetase [3], the “Activity (μmol acyl-CoA/min.)” value is listed as 18.0 μmol acyl-CoA/min.
Consider `CCCCCCCCCCCCCCCCC(=O)O` [Heptadecanoic acid], for which, in the data set on acyl-CoA synthetase [4], the “Activity (μmol acyl-CoA/min.)” value came to 22.3 μmol acyl-CoA/min.
αTTP: in the data set on acyl-CoA synthetase I [1], the “effectiveness as nucleoside-5'-triphosphate” value is reported as “essentially ineffective”.
Consider αATP, for which the “effectiveness as nucleoside-5'-triphosphate” value with acyl-CoA synthetase I [1] is “effective”. Moreover, the “activity relative to that measured with ATP” value in the data set with acyl-CoA synthetase I [1] (nucleotide 7.5 mM) amounted to 78%; in the data set with acyl-CoA synthetase I [1] (nucleotide 15 mM), 61%.
In the case of `O=C(O)CCCCCCCCCCCCCCCO` [16-Hydroxypalmitic acid], in the data set with acyl-CoA synthetase [3], the “effectiveness as substrate of the enzyme” value is reported as “essentially ineffective” and the “Activity (μmol acyl-CoA/min.)” value is recorded as 1.5 μmol acyl-CoA/min.
`O=C(O)CN(CCN(CC(=O)O)CC(=O)O)CC(=O)O` [EDTA]: the “activation or inhibition of the enzyme” value in the data set with acyl-CoA synthetase [2] is “inhibitor; also recorded: inhibits”.
On to `CCCCCC/C=C\CCCCCCCC(=O)O` [Palmitoleic acid], for which the “Activity (μmol acyl-CoA/min.)” value in the data set on acyl-CoA synthetase [4] stood at 19.8 μmol acyl-CoA/min.
Turning to `CCCCCCCCCCCCCC(=O)O` [Myristic acid], the “Activity (μmol acyl-CoA/min.)” value in the data set with acyl-CoA synthetase [3] amounted to 20.8 μmol acyl-CoA/min.
For the molecule `O[C@H](CS)[C@H](O)CS` (racemic) [Dithiothreitol], the “utilization as acyl acceptor” value in the data set with acyl-CoA synthetase I [5] was “Not utilized”.
Consider `CCCCCCCCCCCCCCCC(=O)O` [Palmitic acid], for which, in the data set on acyl-CoA synthetase [3], the “Activity (μmol acyl-CoA/min.)” value was 20.4 μmol acyl-CoA/min.
Take `Nc1ccn([C@@H]2O[C@H](COP(=O)(O)OP(=O)(O)OP(=O)(O)O)[C@@H](O)[C@H]2O)c(=O)n1` [CTP]: the “effectiveness as nucleoside-5'-triphosphate” value with acyl-CoA synthetase I [1] was “essentially ineffective”.
Regarding `CCCCCCCCCCCCCCCCCCCC(=O)O` [Arachidic acid], in the data set with acyl-CoA synthetase [3], the “Activity (μmol acyl-CoA/min.)” value turned out to be 0.6 μmol acyl-CoA/min.
Usually Km stands for the concentration of substrate that gives half-maximal velocity. As for `CC(C)(CO)[C@@H](O)C(=O)NCCC(=O)NCCS` [Pantetheine], in the data set on acyl-CoA synthetase I [5], the Michaelis-Menten constant (Km) worked out at 2500 µM and the Vmax amounted to 57%.
Take `Nc1ncnc2c1ncn2[C@@H]1O[C@H](COP(=O)(O)OP(=O)(O)NP(=O)(O)O)[C@@H](O)[C@H]1O` [adenylyl imidodiphosphonate]: the “effectiveness as nucleoside-5'-triphosphate” value with acyl-CoA synthetase I [1] is on record as “essentially ineffective”.
Regarding `CCCCC/C=C\C/C=C\CCCCCCCC(=O)O` [Linoleic acid], the “Activity (μmol acyl-CoA/min.)” value in the data set with acyl-CoA synthetase [3] was determined as 19.7 μmol acyl-CoA/min.
`N[C@@H](CS)C(=O)O` [L-Cysteine]: the “utilization as acyl acceptor” value in the data set with acyl-CoA synthetase I [5] was “Not utilized”.
In the case of `CC(C)(COP(=O)(O)OP(=O)(O)OC[C@H]1O[C@@H](n2cnc3c(N)ncnc32)[C@H](O)[C@@H]1OP(=O)(O)O)[C@@H](O)C(=O)NCCC(=O)NCCS` [CoA], in the data set with acyl-CoA synthetase I [5], the Km stood at 42 µM and the Vmax is 100%.
Consider `CCCCCCCCCCCC(=O)O` [Lauric acid], for which the “Activity (μmol acyl-CoA/min.)” value with acyl-CoA synthetase [3] is reported as 1.0 μmol acyl-CoA/min.
In the case of `CC(C)(COP(=O)(O)O)[C@@H](O)C(=O)NCCC(=O)NCCS` [4'-Phosphopantetheine], in the data set on acyl-CoA synthetase I [5], the Km was determined as 3300 µM and the Vmax stood at 63%.
On to `CC(C)(COP(=O)(O)OP(=O)(O)OC[C@H]1O[C@@H](n2cnc3c2ncn2ccnc32)[C@H](O)[C@@H]1OP(=O)(O)O)[C@@H](O)C(=O)NCCC(=O)NCCS` [1:^6 N-Etheno-CoA], for which, in the data set with acyl-CoA synthetase I [5], the Michaelis constant (Km) was found to be 500 µM and the Vmax was 40%.
In the case of `CC/C=C\C/C=C\C/C=C\CCCCCCCC(=O)O` [Linolenic acid], the “Activity (μmol acyl-CoA/min.)” value in the data set on acyl-CoA synthetase [3] worked out at 22.0 μmol acyl-CoA/min.
For the molecule `O=c1ccn([C@@H]2O[C@H](COP(=O)(O)OP(=O)(O)OP(=O)(O)O)[C@@H](O)[C@H]2O)c(=O)[nH]1` [UTP], the “effectiveness as nucleoside-5'-triphosphate” value in the data set with acyl-CoA synthetase I [1] is “essentially ineffective”.
With `Nc1nc2c(ncn2[C@@H]2O[C@H](COP(=O)(O)OP(=O)(O)OP(=O)(O)O)[C@@H](O)[C@H]2O)c(=O)[nH]1` [GTP], in the data set on acyl-CoA synthetase I [1], the “effectiveness as nucleoside-5'-triphosphate” value was “essentially ineffective”.
Take `N[C@@H](CCC(=O)N[C@@H](CS)C(=O)NCC(=O)O)C(=O)O` [Glutathione]: the “utilization as acyl acceptor” value in the data set on acyl-CoA synthetase I [5] was “Not utilized”.
Regarding `CCCCCCCCCCCCCCCCCCC(=O)O` [Nonadecanoic acid], the “Activity (μmol acyl-CoA/min.)” value with acyl-CoA synthetase [3] worked out at 1.7 μmol acyl-CoA/min.
In the case of `CCCCCCCC/C=C\CCCCCCCC(=O)O` [Oleic acid], in the data set with acyl-CoA synthetase [3], the “Activity (μmol acyl-CoA/min.)” value is on record as 23.8 μmol acyl-CoA/min.
On to `CCCCCCCCCCCCC(=O)O` [Tridecanoic acid], for which the “Activity (μmol acyl-CoA/min.)” value in the data set with acyl-CoA synthetase [4] was determined as 1.3 μmol acyl-CoA/min.
As for `CCCCC/C=C\C/C=C\C/C=C\C/C=C\CCCC(=O)O` [Arachidonic acid], the “Activity (μmol acyl-CoA/min.)” value in the data set on acyl-CoA synthetase [4] was 1.3 μmol acyl-CoA/min.
Consider `CC(=O)NCCS` [N-Acetylcysteamine], for which the “utilization as acyl acceptor” value in the data set with acyl-CoA synthetase I [5] is recorded as “Not utilized”.
As for `[Cu+2]` [Cu^++], the “activation or inhibition of the enzyme” value in the data set with acyl-CoA synthetase [2] is reported as “inhibitor”. The “inhibition of the enzyme action” value with acyl-CoA synthetase [2] (concentration of 15 mM) is given as “completely inhibits”.
In the case of `CC(C)(COP(=O)(O)OP(=O)(O)OC[C@H]1O[C@@H](n2cnc3c(N)ncnc32)[C@H](O)[C@@H]1O)[C@@H](O)C(=O)NCCC(=O)NCCS` [Dephospho-CoA], in the data set with acyl-CoA synthetase I [5], the Km is 110 µM and the Vmax stood at 70%.
With `O=C(O)CCCCCCCCCCCCCCC(=O)O` [Hexadecanedioic acid], in the data set on acyl-CoA synthetase [3], the “effectiveness as substrate of the enzyme” value is “essentially ineffective” and the “Activity (μmol acyl-CoA/min.)” value came to 0.6 μmol acyl-CoA/min.

B1: acyl-CoA synthetase from E. coli: prior art enzyme purified from Escherichia coli by D. Samuel et al (protein, UniProt P69451 1-561, looked up)
Long-chain-fatty-acid--CoA …: MKKVWLNRYPADVPTEINPDRYQSLVDMFEQSVARYADQPAFVNMGEVMTFRKLEERSRAFAAYLQQGLGLKKGDRVALMMPNLLQYPVALFGILRAGMIVVNVNPLYTPRELEHQLNDSGASAIVIVSNFAHTLEKVVDKTAVQHVILTRMGDQLSTAKGTVVNFVVKYIKRLVPKYHLPDAISFRSALHNGYRMQYVKPELVPEDLAFLQYTGGTTGVAKGAMLTHRNMLANLEQVNATYGPLLHPGKELVVTALPLYHIFALTINCLLFIELGGQNLLITNPRDIPGLVKELAKYPFTAITGVNTLFNALLNNKEFQQLDFSSLHLSAGGGMPVQQVVAERWVKLTGQYLLEGYGLTECAPLVSVNPYDIDYHSGSIGLPVPSTEAKLVDDDDNEVPPGQPGELCVKGPQVMLGYWQRPDATDEIIKNGWLHTGDIAVMDEEGFLRIVDRKKDMILVSGFNVYPNEIEDVVMQHPGVQEVAAVGVPSGSSGEAVKIFVVKKDPSLTEESLVTFCRRQLTGYKVPKLVEFRDELPKSNVGKILRRELRDEARGKVDNKA
For B1, the specific activity in data set [6] is given as 106 mU/mg protein.
